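Five concentrations, 48 hours, 96-well plates. Definition used: TGI = concentration required for complete inhibition of growth.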
Legend:
Test in all cases: NCI-60 cell line screen, 48 h
K-562 leukemia = tested on: K-562 leukemia
NCI-H23 lung = tested on: NCI-H23 lung
NCI-H226 lung = tested on: NCI-H226 lung
CAKI-1 renal = tested on: CAKI-1 renal
U251 CNS = tested on: U251 CNS
UACC-257 melanoma = tested on: UACC-257 melanoma
DMS 273 small cell lung = tested on: DMS 273 small cell lung
OVCAR-8 ovarian = tested on: OVCAR-8 ovarian
KM12 colon = tested on: KM12 colon
SN12C renal = tested on: SN12C renal
DMS 114 small cell lung = tested on: DMS 114 small cell lung
HOP-92 NSCLC = tested on: HOP-92 NSCLC
SNB-78 CNS = tested on: SNB-78 CNS
DLD-1 colon = tested on: DLD-1 colon
HOP-62 NSCLC = tested on: HOP-62 NSCLC
IGROV1 ovarian = tested on: IGROV1 ovarian
HCC-2998 colon = tested on: HCC-2998 colon
EKVX NSCLC = tested on: EKVX NSCLC
COLO 205 colon = tested on: COLO 205 colon
NCI-H522 lung = tested on: NCI-H522 lung
HT29 colon = tested on: HT29 colon
SNB-75 CNS = tested on: SNB-75 CNS
OVCAR-4 ovarian = tested on: OVCAR-4 ovarian
A549 NSCLC = tested on: A549 NSCLC
SK-MEL-28 melanoma = tested on: SK-MEL-28 melanoma
LOX IMVI melanoma = tested on: LOX IMVI melanoma
KM20L2 colon = tested on: KM20L2 colon
SF-268 CNS = tested on: SF-268 CNS
MOLT-4 leukemia = tested on: MOLT-4 leukemia
CCRF-CEM leukemia = tested on: CCRF-CEM leukemia
UO-31 renal = tested on: UO-31 renal
M19-MEL melanoma = tested on: M19-MEL melanoma
HL-60(TB) leukemia = tested on: HL-60(TB) leukemia
786-0 renal = tested on: 786-0 renal
SW-620 colon = tested on: SW-620 colon
SK-MEL-5 melanoma = tested on: SK-MEL-5 melanoma
MALME-3M melanoma = tested on: MALME-3M melanoma
SF-539 CNS = tested on: SF-539 CNS
XF 498 CNS = tested on: XF 498 CNS
SF-295 CNS = tested on: SF-295 CNS
OVCAR-3 ovarian = tested on: OVCAR-3 ovarian
OVCAR-5 ovarian = tested on: OVCAR-5 ovarian
UACC-62 melanoma = tested on: UACC-62 melanoma
ACHN renal = tested on: ACHN renal
RPMI-8226 leukemia = tested on: RPMI-8226 leukemia
LXFL 529 NSCLC = tested on: LXFL 529 NSCLC
HCT-15 colon = tested on: HCT-15 colon
TK-10 renal = tested on: TK-10 renal
NCI-H460 lung = tested on: NCI-H460 lung
A498 renal = tested on: A498 renal
RXF-631 renal = tested on: RXF-631 renal
HOP-18 NSCLC = tested on: HOP-18 NSCLC
SNB-19 CNS = tested on: SNB-19 CNS
SK-MEL-2 melanoma = tested on: SK-MEL-2 melanoma
HCT-116 colon = tested on: HCT-116 colon
SK-OV-3 ovarian = tested on: SK-OV-3 ovarian
RXF 393 renal = tested on: RXF 393 renal
M14 melanoma = tested on: M14 melanoma

For `CN(C)c1[se]nc2c1c(=O)n(C)c(=O)n2C`, the TGI (K-562 leukemia) was over 100 µM, the TGI (NCI-H23 lung) was over 100 µM and the TGI (NCI-H226 lung) was over 100 µM. For the same compound, the TGI (CAKI-1 renal) was over 100 µM, the TGI (U251 CNS) was over 100 µM and the TGI (UACC-257 melanoma) was over 100 µM. The TGI (DMS 273 small cell lung) was over 100 µM, the TGI (OVCAR-8 ovarian) was over 100 µM and the TGI (KM12 colon) was over 100 µM. It also gave a TGI (SN12C renal) of over 100 µM, a TGI (DMS 114 small cell lung) of over 100 µM and a TGI (HOP-92 NSCLC) of over 100 µM. The TGI (SNB-78 CNS) was over 100 µM, the TGI (DLD-1 colon) was over 100 µM and the TGI (HOP-62 NSCLC) was over 100 µM. For the same compound, the TGI (IGROV1 ovarian) was over 100 µM, the TGI (HCC-2998 colon) was over 100 µM and the TGI (EKVX NSCLC) was over 100 µM. It also gave a TGI (COLO 205 colon) of over 100 µM, a TGI (NCI-H522 lung) of over 100 µM and a TGI (HT29 colon) of over 100 µM. The TGI (SNB-75 CNS) was over 100 µM, the TGI (OVCAR-4 ovarian) was over 100 µM and the TGI (A549 NSCLC) was over 100 µM. For the same compound, the TGI (SK-MEL-28 melanoma) was over 100 µM, the TGI (LOX IMVI melanoma) was over 100 µM and the TGI (KM20L2 colon) was over 100 µM. The TGI (SF-268 CNS) was over 100 µM, the TGI (MOLT-4 leukemia) was over 100 µM and the TGI (CCRF-CEM leukemia) was over 100 µM. For the same compound, the TGI (UO-31 renal) was over 100 µM, the TGI (M19-MEL melanoma) was over 100 µM and the TGI (HL-60(TB) leukemia) was over 100 µM. For the same compound, the TGI (786-0 renal) was over 100 µM, the TGI (SW-620 colon) was over 100 µM and the TGI (SK-MEL-5 melanoma) was over 100 µM. The TGI (MALME-3M melanoma) was over 100 µM, the TGI (SF-539 CNS) was over 100 µM and the TGI (XF 498 CNS) was over 100 µM. For the same compound, the TGI (SF-295 CNS) was over 100 µM, the TGI (OVCAR-3 ovarian) was over 100 µM and the TGI (OVCAR-5 ovarian) was over 100 µM. The TGI (UACC-62 melanoma) was over 100 µM, the TGI (ACHN renal) was over 100 µM and the TGI (RPMI-8226 leukemia) was over 100 µM. For the same compound, the TGI (LXFL 529 NSCLC) was over 100 µM, the TGI (HCT-15 colon) was over 100 µM and the TGI (TK-10 renal) was over 100 µM. For the same compound, the TGI (NCI-H460 lung) was over 100 µM, the TGI (A498 renal) was over 100 µM and the TGI (RXF-631 renal) was over 100 µM. The TGI (HOP-18 NSCLC) was over 100 µM, the TGI (SNB-19 CNS) was over 100 µM and the TGI (SK-MEL-2 melanoma) was over 100 µM. It also gave a TGI (HCT-116 colon) of over 100 µM and a TGI (SK-OV-3 ovarian) of over 100 µM.
`CC1=C(C(=O)Nc2ccc([N+](=O)[O-])cc2)C(c2cccc([N+](=O)[O-])c2)C(C(=O)Nc2ccc([N+](=O)[O-])cc2)=C(C)N1` showed a TGI (K-562 leukemia) of over 100 µM, a TGI (NCI-H23 lung) of 66.4 µM and a TGI (NCI-H226 lung) of over 100 µM. The TGI (U251 CNS) was over 100 µM, the TGI (RXF 393 renal) was over 100 µM and the TGI (UACC-257 melanoma) was 56.1 µM. The TGI (OVCAR-8 ovarian) was over 100 µM, the TGI (KM12 colon) was over 100 µM and the TGI (SN12C renal) was over 100 µM. For the same compound, the TGI (DMS 114 small cell lung) was over 100 µM, the TGI (HOP-92 NSCLC) was 39 µM and the TGI (SNB-78 CNS) was over 100 µM. The TGI (DLD-1 colon) was over 100 µM, the TGI (HOP-62 NSCLC) was over 100 µM and the TGI (IGROV1 ovarian) was over 100 µM. For the same compound, the TGI (HCC-2998 colon) was over 100 µM, the TGI (EKVX NSCLC) was over 100 µM and the TGI (COLO 205 colon) was over 100 µM. For the same compound, the TGI (NCI-H522 lung) was over 100 µM, the TGI (HT29 colon) was over 100 µM and the TGI (SNB-75 CNS) was over 100 µM. It also gave a TGI (OVCAR-4 ovarian) of over 100 µM, a TGI (A549 NSCLC) of over 100 µM and a TGI (SK-MEL-28 melanoma) of over 100 µM. For the same compound, the TGI (LOX IMVI melanoma) was over 100 µM, the TGI (KM20L2 colon) was over 100 µM and the TGI (SF-268 CNS) was over 100 µM. For the same compound, the TGI (MOLT-4 leukemia) was over 100 µM, the TGI (CCRF-CEM leukemia) was over 100 µM and the TGI (UO-31 renal) was over 100 µM. The TGI (M19-MEL melanoma) was over 100 µM, the TGI (HL-60(TB) leukemia) was over 100 µM and the TGI (786-0 renal) was over 100 µM. For the same compound, the TGI (SW-620 colon) was over 100 µM, the TGI (MALME-3M melanoma) was over 100 µM and the TGI (SF-539 CNS) was over 100 µM. The TGI (XF 498 CNS) was 41.3 µM, the TGI (M14 melanoma) was over 100 µM and the TGI (SF-295 CNS) was over 100 µM. For the same compound, the TGI (OVCAR-3 ovarian) was over 100 µM, the TGI (OVCAR-5 ovarian) was over 100 µM and the TGI (UACC-62 melanoma) was over 100 µM. For the same compound, the TGI (ACHN renal) was over 100 µM, the TGI (RPMI-8226 leukemia) was over 100 µM and the TGI (LXFL 529 NSCLC) was over 100 µM. It also gave a TGI (HCT-15 colon) of over 100 µM, a TGI (TK-10 renal) of over 100 µM and a TGI (NCI-H460 lung) of over 100 µM. For the same compound, the TGI (A498 renal) was over 100 µM, the TGI (RXF-631 renal) was over 100 µM and the TGI (HOP-18 NSCLC) was over 100 µM. For the same compound, the TGI (SNB-19 CNS) was over 100 µM, the TGI (SK-MEL-2 melanoma) was over 100 µM and the TGI (HCT-116 colon) was over 100 µM. For the same compound, the TGI (SK-OV-3 ovarian) was 71.6 µM.
